Measurements from patent US20120064528A1, “METHODS AND REAGENTS FOR QUANTIFYING NUCLEIC ACID FRAGMENTATION AND APOPTOSIS (QLM-PCR, CELL NUMBER QPCR AND APOQPCR)” (THE MACFARLANE BURNET INSTITUTE FOR MEDICAL RESEARCH AND …, priority 2010, published 2012).
Entries after “also recorded” stand apart in the source; their conditions may differ.

Legend:
Jurkat cells [1] = experiment: Genomic DNA fragmentation by agarose gel electrophoresis and trace intensity; assay type: cell-based, human; conditions: 5 hours
Method: Jurkat cells were grown to log phase in RF-10 tissue culture medium, pelleted and resuspended to 10^6 cells/ ml in new RF-10 at 37° C., and incubated at 37° C. with or without staurosporine (at 4 or 8 μM) for 5 and 6 hours. At the end-points, genomic DNA was purified using Qiagen DNA mini-prep columns following the manufacturer's recommendations, including RNase treatment and stored at −80° C. These columns quantitatively purify nucleic acid in the target size range of 200 by to 50 kbp. Nucleic acid for each end-point was compared by agarose gel electrophoresis. The generation of 100% apoptotic nucleic acid was defined as the complete absence of any typically high molecular weight genomic nucleic acid and complete conversion of this length of nucleic acid into apoptotic fragments, as determined by trace intensity using a GelDoc Imager (BioRad). […] The same experiment from cell culture to nucleic acid purification was repeated to test reproducibility. Nucleic acid from both experiments was electrophoresed together and trace intensities compared (FIG. 2C).

Jurkat cells [2] = experiment: Apoptosis measured by TUNEL with flow cytometry; assay type: cell-based, human
Method: To verify the definition of 100% apoptotic DNA, apoptosis was measured by TUNEL with flow cytometry from fractions of the same cultured cells used for genomic nucleic acid purification (above). At each time point and each staurosporine concentration, cells (6 ml) were collected, washed twice with PBS and resuspended in PBS to 2×10^7 cells/ml for duplicate 100 μl cells per micro-well. TUNEL procedure for cell suspensions followed the In Situ Cell Death Detection Kit, Flourescein (Roche, Mannheim, Germany) with the following modifications: after pelleting cells in wells, supernatant was aspirated and cells gently resuspended in 100 μl/well of fixation/permeabilisation solution (Cytofix/Cytoperm kit, BD Biosciences/Pharmingen, CA, USA). After incubation for 20 minutes at 4° C., cells were washed at this and subsequent wash stages 2 times at room temperature with perm/wash buffer (Cytofix/Cytoperm kit). After final washes, cells were resuspended in 250 μl/well 1% paraformaldehyde in PBS, stored at 4° C. in the dark for up to 12 hours and analyzed by flow cytometry at excitation 488 nm, detection 530 nm using a BD FACScan (BD Biosciences). At each measurement at least 10,000 events were sorted. Mean TUNEL positivity for cells incubated for 5 hours without staurosporine was 3%, while positivity for cells incubated for 5 hours with 8 μM staurosporine was 98.5% (FIG. 3).

CN[C@@H]1C[C@H]2O[C@@](C)([C@@H]1OC)n1c3ccccc3c3c4c(c5c6ccccc6n2c5c31)C(=O)NC4 [staurosporine]
unfragmented high molecular weight genomic nucleic acid remaining, by trace quantification (Jurkat cells [1]; 4 μM staurosporine, 37° C.): 1.8%
DNA fragmentation as determined by trace analysis (Jurkat cells [1]; 8 μM staurosporine, 37° C. (optimal conditions)): all DNA was fragmented; also recorded: unfragmented nucleic acid was not detected
Mean TUNEL positivity (Jurkat cells [2]; 8 μM staurosporine, 5 hours): 98.5%
apoptotic cells by TUNEL with flow cytometry (FACS) (Jurkat cells [2]; optimal test conditions): 99%
